The source of these data is patent publication US20170044107A1, “Inhibitors of JMJD2C as Anticancer Agents” (The J. David Gladstone Institutes, priority 2014, published 2017).

Format in all cases: cell-based
Experiment [1] has as its system CWR22Rv1 androgen-independent prostate cancer cells. Kind of experiment: CellTiter-Glo Luminescent Cell Viability Assay, CWR22Rv1 cells. The following applies: 48 hours treatment, % of survival normalized to DMSO control; for viability at 10 µM: CWR22Rv1, compound at 10 μM. As for the experimental part: (§1) Cell viability assays were performed on three representative prostate cancer cell lines (i.e., CWR22Rvl, PC3 and DU145) to determine the effect of treatment with a series of 8-hydroxyquinoline derivatives.
(§2) Cell viability was assessed 48 hours after compound treatment with the CellTiter-Glo® Luminescent Cell Viability Assay (Promega), according to the manufacturer's protocol. Briefly, 5000 cells were plated into 96-well cell culture plates in DMEM supplemented with 10% FBS. After overnight incubation, compounds at indicated concentrations were added and the treatment was maintained for two days. At the end of compound treatment, 5.0 μL of CellTiter-Glo® Reagent was added to each well. Plates were returned to the incubator for 2 hours. Plates were then removed from the incubator and luminescence was measured in a standard luminescence plate reader. The luminescence signal was then used to calculate % of survival normalized to DMSO control treatment.

Experiment [2] relates to PC3 androgen-independent prostate cancer cells. Kind of experiment: CellTiter-Glo Luminescent Cell Viability Assay, PC3 cells. The conditions noted are these: 48 hours treatment, % of survival normalized to DMSO control; for viability at 2 µM: Homo sapiens, PC-3, compound at 2 μM. As for the experimental part: as §1, §2
For experiment [3], the system named is DU145 androgen-independent prostate cancer cells. Kind of experiment: CellTiter-Glo Luminescent Cell Viability Assay, DU145 cells. The conditions noted are these: 48 hours treatment, % of survival normalized to DMSO control; for viability at 2 µM: Homo sapiens, DU-145, compound at 2 μM. As for the experimental part:
as §1, §2

Structures can show the parent of a compound that is named as a salt.

As for `CC(C)C(=O)NC(c1ccco1)c1ccc2cccnc2c1O` (stereo not drawn) [SD70, N-(furan-2-yl(8-hydroxyquinolin-7-yl)methyl)isobutyramide], the viability at 10 µM in experiment [1] stood at 9%. For the same compound, the viability at 2 µM in experiment [2] was determined as 14%; in experiment [3] it was 26%.

In the case of `CCC(=O)NC(c1ccco1)c1cc(Cl)c2cccnc2c1O` (stereo not drawn) [SD70-1, N-((5-chloro-8-hydroxyquinolin-7-yl)(furan-2-yl)methyl)propionamide], the viability at 10 µM in experiment [1] turned out to be 93%. Also, the viability at 2 µM in experiment [2] worked out at 47%; in experiment [3], 87%.

As for `CC(C)C(=O)NC(c1ccco1)c1cc(Cl)c2cccnc2c1O` (stereo not drawn) [SD70-2, N-((5-chloro-8-hydroxyquinolin-7-yl)(furan-2-yl)methyl)isobutyramide], in experiment [1], the viability at 10 µM is 100%. In addition, the viability at 2 µM in experiment [2] is 9%; in experiment [3] it was 32%.

Take `CC(=O)NC(c1ccco1)c1cc(Cl)c2cccnc2c1O` (stereo not drawn) [SD70-3, N-((5-chloro-8-hydroxyquinolin-7-yl)(furan-2-yl)methyl)acetamide]: the viability at 10 µM in experiment [1] turned out to be 110%. Also, the figures for the viability at 2 µM in experiment [2] and in experiment [3] were 88% and 110%, respectively.

Regarding `CCCC(=O)NC(c1ccco1)c1cc(Cl)c2cccnc2c1O` (stereo not drawn) [SD70-4, N-((5-chloro-8-hydroxyquinolin-7-yl)(furan-2-yl)methyl)butyramide], the viability at 10 µM in experiment [1] was found to be 110%. Moreover, the viability at 2 µM in experiment [2] stood at 7%; in experiment [3], 29%.

With `O=C(NC(c1ccco1)c1cc(Cl)c2cccnc2c1O)c1cccnc1` (stereo not drawn) [SD70-5, N-((5-chloro-8-hydroxyquinolin-7-yl)(furan-2-yl)methyl)nicotinamide], the viability at 10 µM in experiment [1] amounted to 94%. Further, the viability at 2 µM was 23% in experiment [2] and 31% in experiment [3].

For the compound `COc1ccc(C(=O)NC(c2ccco2)c2cc(Cl)c3cccnc3c2O)cc1` (stereo not drawn) [SD70-6, N-((5-chloro-8-hydroxyquinolin-7-yl)(furan-2-yl)methyl)-4-methoxybenzamide], the viability at 10 µM in experiment [1] was found to be 21%. The figures for the viability at 2 µM in experiment [2] and in experiment [3] were 24% and 50%, respectively.

For the compound `O=C(COc1ccccc1)NC(c1ccco1)c1cc(Cl)c2cccnc2c1O` (stereo not drawn) [SD70-7, N-((5-chloro-8-hydroxyquinolin-7-yl)(furan-2-yl)methyl)-2-phenoxyacetamide], the viability at 10 µM in experiment [1] is 28%. For the same compound, the viability at 2 µM in experiment [2] and in experiment [3] was 21% throughout.

On to `CCC(=O)NC(c1ccccc1OC)c1cc(Cl)c2cccnc2c1O` (stereo not drawn) [SD70-8, N-((5-chloro-8-hydroxyquinolin-7-yl)(2-methoxyphenyl)methyl)propionamide], for which the viability at 10 µM in experiment [1] stood at 10%. In addition, the viability at 2 µM stood at 61% in experiment [2] and 42% in experiment [3].

Turning to `CCC(=O)NC(c1ccc(OC)c(OC)c1)c1cc(Cl)c2cccnc2c1O` (stereo not drawn) [SD70-9, N-((5-chloro-8-hydroxyquinolin-7-yl)(3,4-dimethoxyphenyl)methyl)propionamide], the viability at 10 µM in experiment [1] was found to be 18%. For the same compound, the viability at 2 µM in experiment [2] was 21%; in experiment [3], 10%.

With `CCC(=O)NC(c1ccco1)c1cc([N+](=O)[O-])c2cccnc2c1O` (stereo not drawn) [SD70-10, N-(furan-2-yl(8-hydroxy-5-nitroquinolin-7-yl)methyl)propionamide], the viability at 10 µM in experiment [1] turned out to be 110%. The viability at 2 µM in experiment [2] came to 93%; in experiment [3] it was 100%.

In the case of `CCC(=O)NC(c1ccco1)c1ccc2cccnc2c1O` (stereo not drawn) [SD70-11, N-(furan-2-yl(8-hydroxyquinolin-7-yl)methyl)propionamide], the viability at 10 µM in experiment [1] came to 16%. The viability at 2 µM was 79% in experiment [2] and 120% in experiment [3].

On to `Oc1ccc(CCl)c2cccnc12` [SD70-15, 5-(chloromethyl)quinolin-8-ol hydrochloride], for which the viability at 10 µM in experiment [1] came to 91%. Also, the viability at 2 µM was 96% in experiment [2] and 100% in experiment [3].

Turning to `Oc1ccc(COCc2ccccc2)c2cccnc12` [SD70-16, 5-(benzyloxymethyl)quinolin-8-ol], in experiment [1], the viability at 10 µM came to 20%. In addition, the viability at 2 µM in experiment [2] stood at 14%; in experiment [3], 19%.

On to `Oc1ccc(CNCCN2CCOCC2)c2cccnc12` [SD70-17, 5-((2-morpholinoethylamino)methyl)quinolin-8-ol], for which the viability at 10 µM in experiment [1] worked out at 7%. Besides, the viability at 2 µM stood at 98% in experiment [2] and 100% in experiment [3].

On to `Oc1c(CN2CCN(c3ccccn3)CC2)ccc2cccnc12` [SD70-18, 7-((4-(pyridin-2-yl)piperazin-1-yl)methyl)quinolin-8-ol], for which the viability at 10 µM in experiment [1] turned out to be 27%. Besides, the results for the viability at 2 µM in experiment [2] and in experiment [3] were 125% and 110%, respectively.

For `Oc1c(CNCCN2CCOCC2)ccc2cccnc12` [SD70-19, 7-((2-morpholinoethylamino)methyl)quinolin-8-ol], the viability at 10 µM in experiment [1] amounted to 107%. The viability at 2 µM in experiment [2] turned out to be 98%; in experiment [3], 94%.

As for `Oc1c(CN2CCCCC2)ccc2cccnc12` [SD70-20, 7-(piperidin-1-ylmethyl)quinolin-8-ol], in experiment [1], the viability at 10 µM was determined as 99%. The viability at 2 µM in experiment [2] amounted to 98%; in experiment [3], 88%.

As to `CC(C)CCNCc1ccc2cccnc2c1O` [SD70-21, 7-((isopentylamino)methyl)quinolin-8-ol], the viability at 10 µM in experiment [1] turned out to be 93%. For the same compound, the viability at 2 µM in experiment [2] was 93%; in experiment [3], 100%.

As for `COc1c(C(NC(=O)C(C)C)c2ccco2)ccc2cccnc12` (stereo not drawn) [SD70-23, N-(furan-2-yl(8-methoxyquinolin-7-yl)methyl)isobutyramide], in experiment [1], the viability at 10 µM turned out to be 96%.

As for `COc1ccc(C(NC(=O)C(C)C)c2ccc3cccnc3c2O)cc1OC` (stereo not drawn) [SD70-24, N-((3,4-dimethoxyphenyl)(8-hydroxyquinolin-7-yl)methyl)isobutyramide], the viability at 10 µM in experiment [1] was 12%.

For `CC(C)C(=O)NC(c1ccc([N+](=O)[O-])cc1)c1ccc2cccnc2c1O` (stereo not drawn) [SD70-25, N-((8-hydroxyquinolin-7-yl)(4-nitrophenyl)methyl)isobutyramide], in experiment [1], the viability at 10 µM was 16%.

As for “N-((8-hydroxyquinolin-7-yl)(4-methoxyphenyl)methyl)isobutyramide isobutyramide [SD70-22]”, the “% CWR22Rv1 Survival (Compound at 10 μM)” value in experiment [1] came out at 18%. Moreover, the “% PC3 Survival (Compound at 2 μM)” value in experiment [2] was 13%. In addition, the “% DU145 Survival (Compound at 2 μM)” value in experiment [3] is 21%.
